Experimental findings from ChEMBL document CHEMBL5034000, “Novel Bisubstrate Inhibitors for Protein N-Terminal Acetyltransferase D” (J Med Chem, 2021) are described below.

Active and inactive are the calls of the source. The calls are words filed in the database; no cut-off is given here. Where a SMILES comes first, the peptide text is derived from it. [ ]: non-standard residue; d: D form. The star is where a group is joined. X2 = CC(C)(COP(=O)(O)OP(=O)(O)OC[C@H]1O[C@@H](n2cnc3c(N)ncnc32)[C@H](OP(=O)(O)O)[C@@H]1O)C(O)C(=O)NCCC(=O)NCC*; Mpa = O=C(O)CCS

Data set [1] in a line: Drug uptake in digitonin treated human HCT116 cells measured at 100 uM after 2 hrs of incubation by MALDI-MS. To be noted: hct-116, 2 h. Format: ADME, cell-based.
Data set [2] deals with T1, N-alpha-acetyltransferase 50 (Homo sapiens) (UniProt Q9GZZ1).
T1 sequence (whole entry): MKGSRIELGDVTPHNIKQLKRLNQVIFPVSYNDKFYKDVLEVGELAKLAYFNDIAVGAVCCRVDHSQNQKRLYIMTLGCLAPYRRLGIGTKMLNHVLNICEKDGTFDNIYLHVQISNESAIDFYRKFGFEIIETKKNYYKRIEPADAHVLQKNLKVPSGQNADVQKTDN
In words: Inhibition of human NatE using AcCoA and MLGP peptide as substrate at 10 uM incubated for 40 min at room temperature.

The species entered for data set [3] is Homo sapiens. In words: Inhibition of human NatB using AcCoA and MDVF peptide as substrate at 10 uM incubated for 10 min at room temperature.
The target in data set [4] is N-alpha-acetyltransferase 40 (Homo sapiens) (UniProt Q86UY6). To be noted: HCT-116, Lysate, dose 100.0 µM, time 2.0 hrs.
The species named for data set [5] is Homo sapiens. In words: Inhibition of human NatA using AcCoA and H4 peptide as substrate at 1 uM incubated for 12 min at room temperature relative to control.
The species named for data set [6] is Homo sapiens. The experiment in a line: Selectivity ratio of inhibition of human MOF to inhibition of human NatD.
The test system of data set [7] is NatC (Schizosaccharomyces pombe). The experiment in a line: Selectivity ratio of inhibition of Schizosaccharomyces pombe NatC to inhibition of human NatD.
The target of data set [8] is N-alpha-acetyltransferase 40 (Homo sapiens) (UniProt Q86UY6). In words: Non-competitive inhibition of human NatD using various concentration of [14C]acetyl-CoA and fixed human H4 peptide as substrate measured after 13 mins radioactive assay.
For data set [9], the system named is NatC (Schizosaccharomyces pombe). In words: Inhibition of Schizosaccharomyces pombe NatC using AcCoA and MLRF peptide as substrate at 10 uM incubated for 5 min at room temperature.
The target in data set [10] is T2, Histone acetyltransferase KAT8 (Homo sapiens) (UniProt Q9H7Z6).
T2 sequence (whole entry): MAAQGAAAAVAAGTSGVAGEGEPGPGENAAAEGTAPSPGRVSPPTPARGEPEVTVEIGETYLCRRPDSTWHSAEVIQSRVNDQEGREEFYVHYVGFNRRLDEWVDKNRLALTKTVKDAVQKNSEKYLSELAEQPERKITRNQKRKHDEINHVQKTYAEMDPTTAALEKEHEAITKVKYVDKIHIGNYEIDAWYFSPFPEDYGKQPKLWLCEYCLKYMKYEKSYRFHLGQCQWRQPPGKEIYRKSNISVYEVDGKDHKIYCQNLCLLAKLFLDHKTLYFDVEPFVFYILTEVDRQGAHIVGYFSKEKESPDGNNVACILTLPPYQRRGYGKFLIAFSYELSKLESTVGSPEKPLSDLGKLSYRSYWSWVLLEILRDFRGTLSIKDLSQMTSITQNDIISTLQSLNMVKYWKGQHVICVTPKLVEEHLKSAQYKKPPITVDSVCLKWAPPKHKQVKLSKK
In words: Inhibition of human MOF using AcCoA and H4 peptide as substrate at 1 uM incubated for 20 min at room temperature relative to control.

Data set [11] addresses Histone acetyltransferase KAT2B (Homo sapiens) (UniProt Q92831). The experiment in a line: Inhibition of human PCAF using AcCoA and H4 peptide as substrate at 10 uM incubated for 20 min at room temperature.
The species entered for data set [12] is Homo sapiens. In words: Selectivity ratio of inhibition of human NatA to inhibition of human NatD.

Histone acetyltransferase KAT2B (Homo sapiens), sequence (Q92831 whole entry, looked up): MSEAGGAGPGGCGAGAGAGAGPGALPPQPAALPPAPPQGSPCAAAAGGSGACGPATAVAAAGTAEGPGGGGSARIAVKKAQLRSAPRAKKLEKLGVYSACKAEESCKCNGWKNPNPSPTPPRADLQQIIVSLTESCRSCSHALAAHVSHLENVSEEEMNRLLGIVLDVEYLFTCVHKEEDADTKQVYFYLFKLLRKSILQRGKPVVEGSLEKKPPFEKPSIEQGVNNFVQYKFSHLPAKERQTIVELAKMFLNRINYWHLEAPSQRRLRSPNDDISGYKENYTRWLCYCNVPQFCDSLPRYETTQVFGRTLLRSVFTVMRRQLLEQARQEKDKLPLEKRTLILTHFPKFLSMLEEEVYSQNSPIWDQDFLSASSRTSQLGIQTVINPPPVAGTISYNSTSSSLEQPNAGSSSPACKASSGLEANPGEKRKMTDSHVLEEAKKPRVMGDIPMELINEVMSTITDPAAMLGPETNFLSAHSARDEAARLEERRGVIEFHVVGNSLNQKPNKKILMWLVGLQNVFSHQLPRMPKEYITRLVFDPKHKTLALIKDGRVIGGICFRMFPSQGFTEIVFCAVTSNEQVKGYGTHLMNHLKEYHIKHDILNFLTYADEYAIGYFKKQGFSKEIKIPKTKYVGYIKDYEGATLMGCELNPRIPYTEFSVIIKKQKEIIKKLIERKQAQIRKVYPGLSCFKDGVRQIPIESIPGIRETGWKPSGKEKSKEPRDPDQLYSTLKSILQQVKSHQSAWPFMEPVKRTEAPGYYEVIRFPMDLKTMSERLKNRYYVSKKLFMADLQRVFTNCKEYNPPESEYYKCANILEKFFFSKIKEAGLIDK

For `CC(C)(COP(=O)(O)OP(=O)(O)OC[C@H]1O[C@@H](n2cnc3c(N)ncnc32)[C@H](OP(=O)(O)O)[C@@H]1O)C(O)C(=O)NCCC(=O)NCCSCCC(=O)N[C@@H](CO)C(=O)NCC(=O)N[C@@H](CCCNC(=N)N)C(=O)NCC(N)=O` (stereo partly drawn), the Drug uptake result in data set [1] was “Active”.
Consider `CC(C)(COP(=O)(O)OP(=O)(O)OC[C@H]1O[C@@H](n2cnc3c(N)ncnc32)[C@H](OP(=O)(O)O)[C@@H]1O)C(O)C(=O)NCCC(=O)NCCSCCC(=O)N[C@@H](CO)C(=O)NCC(=O)N[C@@H](CCCNC(=N)N)C(=O)NCC(=O)N[C@@H](CCCCN)C(N)=O` (stereo partly drawn) ([Mpa](X2)SGRGK-NH2), for which the inhibition result (in data set [2]; in the data set filed under Homo sapiens [3]; in [9]; in data set [11]) was “inactive” throughout. Moreover, in [4], the deltaT was determined as 1.7 °C. Further, the inhibition (in the data set filed under Homo sapiens [5]; in [10]) was 10% each time. Moreover, the Drug uptake entry in data set [1] is “Active”. Further, the Selectivity ratio is 1000 in the data set filed under Homo sapiens [6], 10000 in data set [7] and 1000 in the data set filed under Homo sapiens [12]. Moreover, the alphaKi in data set [8] was 2.1 nM.
